From US20250195513A1, “DEGRADATION OF IRAK4 BY CONJUGATION OF IRAK4 INHIBITORS WITH E3 LIGASE LIGAND AND METHODS OF USE” (BeiGene, Ltd., priority 2022, published 2025)

How the values were obtained:
[1] = target: T1, IRAK4 (Homo sapiens, UniProt Q9NWZ3); test: IRAK4 Degradation Assay with Human Serum (Karpas299, HTRF/TR-FRET); type: cell-based; details: Karpas-299 in human serum, 24 hrs treatment; for DC50: read-out: IRAK4 degradtion with human serum assay DC50; for Dmax: read-out: IRAK4 degradtion with human serum assay Dmax (%)
T1 construct: endogenous in cells; host or cells: Karpas299
T1 sequence (Q9NWZ3 1-460): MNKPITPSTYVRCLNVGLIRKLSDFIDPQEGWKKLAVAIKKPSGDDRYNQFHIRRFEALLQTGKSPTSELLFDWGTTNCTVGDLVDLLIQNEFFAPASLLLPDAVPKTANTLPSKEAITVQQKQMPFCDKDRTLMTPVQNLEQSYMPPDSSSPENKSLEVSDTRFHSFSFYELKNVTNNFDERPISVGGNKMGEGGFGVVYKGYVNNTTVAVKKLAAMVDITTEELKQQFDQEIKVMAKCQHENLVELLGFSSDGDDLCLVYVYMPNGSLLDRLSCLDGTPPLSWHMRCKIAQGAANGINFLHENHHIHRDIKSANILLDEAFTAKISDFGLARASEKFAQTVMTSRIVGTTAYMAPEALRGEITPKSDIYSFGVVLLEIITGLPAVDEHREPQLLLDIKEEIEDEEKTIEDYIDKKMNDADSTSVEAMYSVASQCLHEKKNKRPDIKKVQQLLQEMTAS
Method in brief: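 Remaining IRAK4 measured by TR-FRET immunoassay on lysates of Karpas299 cells exposed 24 h to compound dilution series in human serum AB. DC50 derived from a Hill-slope fit of % degradation versus concentration.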

[2] = target: T1, IRAK4; test: IRAK4 Degradation Assay (Karpas299, HTRF/TR-FRET); type: cell-based; details: Karpas-299 cells
Method in brief: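 Compound potency as DC50 (IC50) came from four-parameter fits of percent IRAK4 degradation. IRAK4 was measured by HTRF (665/620 nm) in lysates of Karpas299 cells seeded at 0.2 million per well. Cells had been treated with compound dilutions for 5 or 24 h.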

[3] = 24 h treatment, maximum percentage of degradation, read-out: IRAK4 in Karpas-299 (24 h) Dmax (%)
[4] = 24 h treatment, read-out: IRAK4 in Karpas-299 (24 h) DC50
[5] = 5 h treatment, maximum percentage of degradation, read-out: IRAK4 in Karpas-299 (5 h) Dmax (%)
[6] = 5 h treatment, read-out: IRAK4 in Karpas-299 (5 h) DC50

SMILES	DC50 [1] [nM]	Dmax [1] [%]	Dmax [2, 3] [%]	DC50 [2, 4] [nM]	Dmax [2, 5] [%]	DC50 [2, 6] [nM]	IRAK4 degradtion with human serum assay Dmax (%) [1] [%]	IRAK4 in Karpas-299 (24 h) Dmax (%) ([2]; 24 h treatment, maximum percentage of degradation)
CC(C)(O)c1cc2nn([C@H]3CC[C@H](N4CCN(CCc5cc(F)c([C@H]6CCC(=O)NC6=O)c(F)c5)C[C@@H]4CC#N)CC3)cc2cc1NC(=O)c1ccc2cc(C#N)cnn12 [Example 389, 3-cyano-N-(2-((1S,4r)-4-((S)-2-(cyanomethyl)-4-(4-((R)-2,6-dioxopiperidin-3-yl)-3,5-difluorophenethyl)piperazin-1-yl)cyclohexyl)-6-(2-hydroxypropan-2-yl)-2H-indazol-5-yl)pyrrolo[1,2-b]pyridazine-7-carboxamide]	13	100	94	1				
COC[C@@H]1CN(C2CCN(c3cc(F)c([C@H]4CCC(=O)NC4=O)c(F)c3)CC2)CCN1[C@H]1CC[C@H](n2cc3cc(NC(=O)c4ccc5cc(C#N)cnn45)c(C(C)(C)O)cc3n2)CC1 [Example 328, 3-cyano-N-(2-((1S,4r)-4-((S)-4-(1-(4-((R)-2,6-dioxopiperidin-3-yl)-3,5-difluorophenyl)piperidin-4-yl)-2-(methoxymethyl)piperazin-1-yl)cyclohexyl)-6-(2-hydroxypropan-2-yl)-2H-indazol-5-yl)pyrrolo[1,2-b]pyridazine-7-carboxamide]	19	101	98	0.8				
N#Cc1cnn2c(C(=O)Nc3cc4cn([C@H]5CC[C@H](N6CCN(C(=O)C7CN(c8cc(F)c([C@H]9CCC(=O)NC9=O)c(F)c8)C7)CC6)CC5)nc4c4c3OCO4)ccc2c1 [Example 355]	75	73	95	0.4				
CC(C)(O)c1cc2nn([C@H]3CC[C@H](N4CCN(C5CN(c6cc(F)c([C@H]7CCC(=O)NC7=O)c(F)c6)C5)CC4)CC3)cc2cc1NC(=O)c1coc2cccnc12 [Example 404, N-(2-((1R,4r)-4-(4-(1-(4-((R)-2,6-dioxopiperidin-3-yl)-3,5-difluorophenyl)azetidin-3-yl)piperazin-1-yl)cyclohexyl)-6-(2-hydroxypropan-2-yl)-2H-indazol-5-yl)furo[3,2-b]pyridine-3-carboxamide]	5.4	94	93	0.8				
COc1cc(N2CC(C(=O)N3CCN([C@H]4CC[C@H](n5cc6cc(NC(=O)c7ccc8cc(C#N)cnn78)c(C(C)(C)O)cc6n5)CC4)CC3)C2)c(F)cc1N1CCC(=O)NC1=O [Example 258, 3-cyano-N-(2-((1r,4r)-4-(4-(1-(4-(2,4-dioxotetrahydropyrimidin-1(2H)-yl)-2-fluoro-5-methoxyphenyl)azetidine-3-carbonyl)piperazin-1-yl)cyclohexyl)-6-(2-hydroxypropan-2-yl)-2H-indazol-5-yl)pyrrolo[1,2-b]pyridazine-7-carboxamide]	21	97	96	2.6				
CC(C)(O)c1cc2nn(C34CC(N5CCN(CCC6CCN(c7cc(F)c([C@H]8CCC(=O)NC8=O)c(F)c7)CC6)CC5)(C3)C4)cc2cc1NC(=O)c1ccc2cc(C#N)cnn12 [Example 349, (R)-3-cyano-N-(2-(3-(4-(2-(1-(4-(2,6-dioxopiperidin-3-yl)-3,5-difluorophenyl)piperidin-4-yl)ethyl)piperazin-1-yl)bicyclo[1.1.1]pentan-1-yl)-6-(2-hydroxypropan-2-yl)-2H-indazol-5-yl)pyrrolo[1,2-b]pyridazine-7-carboxamide]	7.7	98	97	2.4	94	3.9		
CC(C)(O)c1cc2nn([C@H]3CC[C@H](N4CCN([C@H]5C[C@H](c6ccc(N[C@@H]7CCC(=O)NC7=O)cc6)C5)CC4)CC3)cc2cc1NC(=O)c1ccc2cc(C#N)cnn12 [Example 272, 3-cyano-N-(2-((1R,4r)-4-(4-((1R,3R)-3-(4-(((R)-2,6-dioxopiperidin-3-yl)amino)phenyl)cyclobutyl)piperazin-1-yl)cyclohexyl)-6-(2-hydroxypropan-2-yl)-2H-indazol-5-yl)pyrrolo[1,2-b]pyridazine-7-carboxamide]	19	94	96	6.7				
CC(C)(O)c1cc2nn([C@H]3CC[C@H](N4CCN(C(=O)C5CN(c6cc(F)c([C@H]7CCC(=O)NC7=O)c(F)c6)C5)CC4=O)CC3)cc2cc1NC(=O)c1ccc2cc(C#N)cnn12 [Example 199, 3-cyano-N-(2-((1r,4r)-4-(4-(1-(4-((R)-2,6-dioxopiperidin-3-yl)-3,5-difluorophenyl)azetidine-3-carbonyl)-2-oxopiperazin-1-yl)cyclohexyl)-6-(2-hydroxypropan-2-yl)-2H-indazol-5-yl)pyrrolo[1,2-b]pyridazine-7-carboxamide]	22	95	99	0.4				
CC(C)(O)c1cc2nn(C3CCN([C@@H]4CCN(C5CCN(c6cc(F)c([C@H]7CCC(=O)NC7=O)c(F)c6)CC5)CC4(F)F)CC3)cc2cc1NC(=O)c1ccc2cc(C#N)cnn12 [Example 341, 3-cyano-N-(2-((R)-1″-(4-((R)-2,6-dioxopiperidin-3-yl)-3,5-difluorophenyl)-3′,3′-difluoro-[1,4′:1′,4″-terpiperidin]-4-yl)-6-(2-hydroxypropan-2-yl)-2H-indazol-5-yl)pyrrolo[1,2-b]pyridazine-7-carboxamide]	15	96	97	1.5				
Cc1nc(C2CCC(=O)NC2=O)ccc1N1CCC(N2CCN(C34CC(n5cc6cc(NC(=O)c7ccc8cc(C#N)cnn78)c(C(C)(C)O)cc6n5)(C3)C4)CC2)CC1 (stereo not drawn) [Example 419, 3-cyano-N-(2-(3-(4-(1-(6-(2,6-dioxopiperidin-3-yl)-2-methylpyridin-3-yl)piperidin-4-yl)piperazin-1-yl)bicyclo[1.1.1]pentan-1-yl)-6-(2-hydroxypropan-2-yl)-2H-indazol-5-yl)pyrrolo[1,2-b]pyridazine-7-carboxamide]	4	97	97	1.6				
CC(C)(O)c1cc2nn([C@H]3CC[C@H](N4CCN(CCc5cc(F)c([C@H]6CCC(=O)NC6=O)c(F)c5)CC4)CC3)cc2cc1NC(=O)c1ccc2cc(Br)cnn12 [Example 414, 3-bromo-N-(2-((1R,4r)-4-(4-(4-((R)-2,6-dioxopiperidin-3-yl)-3,5-difluorophenethyl)piperazin-1-yl)cyclohexyl)-6-(2-hydroxypropan-2-yl)-2H-indazol-5-yl)pyrrolo[1,2-b]pyridazine-7-carboxamide]	439	97	96	1.5				
CC(C)(O)c1cc2nn([C@H]3CC[C@H](N4CCN(CCNc5cccc6c5C(=O)N(C5CCC(=O)NC5=O)C6=O)CC4)CC3)cc2cc1NC(=O)c1ccc2cc(C#N)cnn12 (stereo partly drawn) [Example 437, 3-cyano-N-(2-((1r,4r)-4-(4-(2-((2-(2,6-dioxopiperidin-3-yl)-1,3-dioxoisoindolin-4-yl)amino)ethyl)piperazin-1-yl)cyclohexyl)-6-(2-hydroxypropan-2-yl)-2H-indazol-5-yl)pyrrolo[1,2-b]pyridazine-7-carboxamide]	9.4	101	99	4.7				
CC(C)(O)c1cc2nn([C@H]3CC[C@H](N4CCN(C5CCN(c6ccc(C7CCC(=O)NC7=O)nc6)CC5)CC4)CC3)cc2cc1NC(=O)c1ccc2cc(C#N)cnn12 (stereo partly drawn) [Example 254, 3-cyano-N-(2-((1r,4r)-4-(4-(1-(6-(2,6-dioxopiperidin-3-yl)pyridin-3-yl)piperidin-4-yl)piperazin-1-yl)cyclohexyl)-6-(2-hydroxypropan-2-yl)-2H-indazol-5-yl)pyrrolo[1,2-b]pyridazine-7-carboxamide]	25	98	96	4.4	97	6.7		
CC(C)(O)c1cc2nn([C@H]3CC[C@H](N4CCN(CC5CN(c6cc(F)c([C@H]7CCC(=O)NC7=O)c(F)c6)C5)CC4)CC3)cc2cc1NC(=O)c1ccc2n1NCC(C#N)=C2 [Example 397, 3-cyano-N-(2-((1r,4r)-4-(4-((1-(4-((R)-2,6-dioxopiperidin-3-yl)-3,5-difluorophenyl)azetidin-3-yl)methyl)piperazin-1-yl)cyclohexyl)-6-(2-hydroxypropan-2-yl)-2H-indazol-5-yl)-1,2-dihydropyrrolo[1,2-b]pyridazine-7-carboxamide]	12			1.7			96	95
